Patent US20090258385A1, “METHOD OF ANALYZING CELLS BY FLOW CYTOMETRY, USE OF AN ANTIOXIDANT AND/OR FREE RADICAL-SCAVENGING AGENT IN SUCH A METHOD AND INCUBATION BUFFER COMPRISING AN ANTIOXIDANT AND/OR FREE RADICAL-SCAVENGING AGENT” (Hopitaux de Paris, priority 2008, published 2009)

Tests used:
[1] = test system: lymphocytes labeled with anti-CD45 antibody conjugated with APC tandem; experiment: percentage of decoupling of APC tandem on immunolabeled lymphocytes by flow cytometry; format: cell-based, human
Description: The positivity threshold was determined in the APC channel at the time T0 and related to the time T30. The percentage of “decoupled” cells was expressed as the ratio of the total number of both APC- and APC tandem-positive cells to the total APC tandem-positive lymphocytes.

[2] = test system: monocytes labeled with anti-CD45 antibody conjugated with APC tandem; experiment: percentage of decoupling of APC tandem on immunolabeled monocytes by flow cytometry; format: cell-based, human
From the text: (§1) The terms “percentage of decoupling”, “% decoupling”, “% decoupling APC vs APC-Cy7”, “% decoupling APC vs APC-H7” are used in the preceding text and in the text which follows and in the accompanying figures to denote the ratio:
(§2) [Number of cells which, although having been labeled with an APC tandem, emit fluorescence into the APC channel (and not into the channel of the APC tandem used)]/[total number of cells which have been labeled with the APC tandem, regardless of the channel into which they emit],
(§3) this ratio being multiplied by 100.
(§4) For each immunolabeling experiment, the cells were mixed and subjected to flow cytometry analysis on a Becton Dickinson FACSCanto II apparatus. From 10,000 to 50,000 events were acquired per test. The singlet cells were selected by a commonly used cell sorting procedure: intersection of the three windows (P1, P2 and P3) of the biparametric histograms.
(§5) For each type of cells, the percentage of decoupling was calculated as previously described using the BD […] software.
(§6) The results are represented in FIGS. 25 and 26.

[3] = test system: neutrophilic polynuclear cells labeled with anti-CD45 antibody conjugated with APC tandem; experiment: percentage of decoupling of APC tandem on immunolabeled neutrophilic polynuclear cells by flow cytometry; format: cell-based, human
From the text: as §1, §2, §3, §4, §5, §6

[4] = decoupling / signal impairment of APC tandem attached to beads (no cells)
From the text: For that, they analyzed the stability of the APC tandem fluorochromes attached to lymphocytes and compared it to the stability of these same APC tandems attached to beads. This comparison makes it possible to determine whether or not it is the APC tandem which is degraded, regardless of the context in which it is used, or if the APC tandem is only degraded in the presence of cells.
The beads used in these experiments were beads Compbeads® from Becton Dickinson.
The lymphocytes, like the beads, were labeled with anti-CD45 antibodies conjugated with the APC-Cy7 tandem fluorochrome or with the APC-H7 tandem fluorochrome.

monocytes = test system: monocytes
Description: (§7) Aliquots of human peripheral blood (containing 500,000 leukocytes) were incubated in the lysis buffer and then washed three times with 1×PBS supplemented with 2.5% FBS. The cells (500,000) were then immuno-labeled with 5 μl of each of the desired antibodies conjugated either with the desired APC tandem or with APC alone in 100 μl of incubation buffer for 20 min at room temperature, and washed three times with the PBS/FBS solution and resuspended in 200 μl of PBS/FBS solution.
(§8) The dead cells were labeled for their exclusion during analysis of the data acquired by flow cytometry using the intercalating agent 7-aminoactinomycin-D (7-AAD) from SIGMA-ALDRICH.

[5] = test system: neutrophilic polynuclear cells
Description: as §7, §8

lymphocytes = experiment: viability and morphology of lymphocytes; format: cell-based, human
cells = experiment: toxicity to cells at the concentrations used; format: cell-based
[6] = neutrophilic polynuclear cells, H2O2

For OO [H2O2, hydrogen peroxide], the “effect on percentage of decoupling” value ([1]; anti-CD45 APC-Cy7, 0.01 mM H2O2, 20 to 60 minutes) was “does not modify”, the “effect on percentage of decoupling” value ([1]; anti-CD45 APC-Cy7, 0.1 mM H2O2, 20 to 60 minutes) was “increased” and the “effect on decoupling compared with lymphocytes” value ([2]; H2O2) was “comparable role”. The “effect on decoupling compared with lymphocytes” value [3, 6] was “comparable role”, the “decoupling of antibodies conjugated with APC-Cy7 attached to beads” value ([4]; beads, over time, H2O2) was “could induce the decoupling” and the “effect on viability of the cells” value (monocytes; H2O2) was “without any effect on the viability”. For the same compound, the “effect on viability of the cells” value [5, 6] was “without any effect on the viability”.

With [N-]=[N+]=[N-] [NaN3, sodium azide] the “effect on cell viability” value (monocytes; NaN3) was “without affecting cell viability” and the “effect on cell viability” value ([5]; neutrophilic polynuclear leukocytes, NaN3) was “without affecting cell viability”.

In the case of O=C1O[C@H]([C@@H](O)CO)C(O)=C1O [vitamin C, L-ascorbic acid], the “effect on percentage of decoupling over time” value ([1]; anti-CD45 APC-Cy7, 1 mM vitamin C, room temperature, monitored 1 hour) is reported as “strongly inhibits”, the “effect on percentage of decoupling” value ([1]; vitamin C 0.1 mM) is reported as “only a reduced effect” and the “concentration at which a sufficient decrease of the percentage of decoupling appears” value [2] is reported as 1 mM. The “concentration up to which the decrease of decoupling exists” value [2] was ≤ 10 mM, the “concentration at which a sufficient decrease of the percentage of decoupling is obtained” value ([3]; neutrophilic polynuclear cells) was 0.25 mM and the “concentration up to which the decrease of decoupling exists” value ([3]; neutrophilic polynuclear cells) was ≤ 10 mM. The “effect on percentage of decoupling over time” value ([3]; neutrophilic polynuclear leukocytes, anti-CD45 APC-Cy7, 1 mM vitamin C, room temperature, monitored 1 hour) was “strongly inhibits”, the “effect on impairment of the APC tandem signal caused by H2O2” value ([4]; beads Compbeads, H2O2 0 to 1 mM, 1 mM vitamin C) was “blocks the impairment of the signal” and the “concentration above which morphology and viability are modified” value (lymphocytes) was “above 10 mM”. For the same compound, the “concentration above which viability and morphology are modified” value (monocytes) was > 10 mM, the “concentration above which cells begin to undergo a decrease in viability” value ([5]; neutrophilic polynuclear cells) was “Above 10 mM” and the “concentration above which cells begin to undergo morphological impairment” value ([5]; neutrophilic polynuclear cells) was “Above 4 mM”. For the same compound, the toxicity to cells (cells) was “not toxic to cells”.
